Measured values published in ChEMBL document CHEMBL3885881, “DrugMatrix”.

Species on record: Rattus norvegicus
Assay: DrugMatrix - Regimen: Daily Repeat
Assay type: toxicity, organism-based, Sprague-Dawley
Set-up: regimen Daily Repeat, gender Male, age 6-8 weeks
Conditions: in vivo, sc, route subcutaneous, […]; for ABSOLUTE BASOPHIL / ABSOLUTE EOSINOPHIL / ABSOLUTE LYMPHOCYTE / ABSOLUTE MONOCYTE / ABSOLUTE SEGMENTED NEUTROPHIL / BASOPHIL / EOSINOPHIL / ERYTHROCYTE COUNT / HEMATOCRIT / HEMOGLOBIN / LEUKOCYTE COUNT / LYMPHOCYTE / MEAN CORPUSCULAR HEMOGLOBIN / MEAN CORPUSCULAR HEMOGLOBIN CONCENTRATION / MEAN CORPUSCULAR VOLUME / MONOCYTE / NEUTROPHIL / NUCLEATED RED BLOOD CELLS / PLATELET COUNT: tissue Blood; for ALANINE AMINOTRANSFERASE / ALBUMIN / ALKALINE PHOSPHATASE / ASPARTATE AMINOTRANSFERASE / BLOOD UREA NITROGEN / CARBON DIOXIDE / CHLORIDE / CHOLESTEROL / CREATINE PHOSPHOKINASE / CREATININE / GLUCOSE / LACTATE DEHYDROGENASE / LIPASE / PHOSPHORUS / POTASSIUM / SODIUM / TOTAL BILIRUBIN / TOTAL PROTEIN / URIC ACID: tissue Plasma
[1] = 50 mg/kg, 120 h, dose level Low, time 5 day
[2] = 201 mg/kg, 72 h, dose level High, time 3 day
[3] = 201 mg/kg, 120 h, dose level High, time 5 day

Compound: CCCCOC(=O)c1ccc(N)cc1 [BUTAMBEN]
- ABSOLUTE BASOPHIL [1]: 0 CELLS/uL
- ABSOLUTE EOSINOPHIL [1]: 200.67 CELLS/uL
- ABSOLUTE LYMPHOCYTE [1]: 13363.67 CELLS/uL
- ABSOLUTE MONOCYTE [1]: 123.33 CELLS/uL
- ABSOLUTE SEGMENTED NEUTROPHIL [1]: 2512.33 CELLS/uL
- BASOPHIL [1]: 0%
- EOSINOPHIL [1]: 1.33%
- ERYTHROCYTE COUNT [1]: 5.82 x10E6/uL
- HEMATOCRIT [1]: 36.47%
- HEMOGLOBIN [1]: 13.23 G/DL
- LEUKOCYTE COUNT [1]: 16.2 x10E3/uL
- LYMPHOCYTE [1]: 82.33%
- MEAN CORPUSCULAR HEMOGLOBIN [1]: 22.8 pg
- MEAN CORPUSCULAR HEMOGLOBIN CONCENTRATION [1]: 36.3 G/DL
- MEAN CORPUSCULAR VOLUME [1]: 62.77 fL
- MONOCYTE [1]: 0.67%
- NEUTROPHIL [1]: 15.67%
- NUCLEATED RED BLOOD CELLS [1]: 0 /100WBC
- PLATELET COUNT [1]: 1424.33 x10E3/uL
- ALANINE AMINOTRANSFERASE [1]: 47.67 u/L
- ALBUMIN [1]: 4.3 G/DL
- ALKALINE PHOSPHATASE [1]: 349 u/L
- ASPARTATE AMINOTRANSFERASE [1]: 78.67 u/L
- BLOOD UREA NITROGEN [1]: 19.67 mg/dL
- CARBON DIOXIDE [1]: 23.67 mmol/L
- CHLORIDE [1]: 105.67 MEQ/L
- CHOLESTEROL [1]: 76.67 mg/dL
- CREATINE PHOSPHOKINASE [1]: 340 u/L
- CREATININE [1]: 0.21 mg/dL
- GLUCOSE [1]: 179.67 mg/dL
- LACTATE DEHYDROGENASE [1]: 100.67 u/L
- LIPASE [1]: 8.33 u/L
- PHOSPHORUS [1]: 12.87 mg/dL
- POTASSIUM [1]: 6.56 MEQ/L
- SODIUM [1]: 145.27 MEQ/L
- TOTAL BILIRUBIN [1]: 0.23 mg/dL
- TOTAL PROTEIN [1]: 6.03 G/DL
- URIC ACID [1]: 1.9 mg/dL
- ABSOLUTE BASOPHIL [2]: 0 CELLS/uL
- ABSOLUTE EOSINOPHIL [2]: 70 CELLS/uL
- ABSOLUTE LYMPHOCYTE [2]: 16456 CELLS/uL
- ABSOLUTE MONOCYTE [2]: 124.67 CELLS/uL
- ABSOLUTE SEGMENTED NEUTROPHIL [2]: 2816 CELLS/uL
- BASOPHIL [2]: 0%
- EOSINOPHIL [2]: 0.33%
- ERYTHROCYTE COUNT [2]: 5.58 x10E6/uL
- HEMATOCRIT [2]: 36%
- HEMOGLOBIN [2]: 13.23 G/DL
- LEUKOCYTE COUNT [2]: 19.47 x10E3/uL
- LYMPHOCYTE [2]: 84.67%
- MEAN CORPUSCULAR HEMOGLOBIN [2]: 23.77 pg
- MEAN CORPUSCULAR HEMOGLOBIN CONCENTRATION [2]: 36.8 G/DL
- MEAN CORPUSCULAR VOLUME [2]: 64.57 fL
- MONOCYTE [2]: 0.67%
- NEUTROPHIL [2]: 14.33%
- NUCLEATED RED BLOOD CELLS [2]: 0.67 /100WBC
- PLATELET COUNT [2]: 1165.33 x10E3/uL
- ALANINE AMINOTRANSFERASE [2]: 57 u/L
- ALBUMIN [2]: 4.07 G/DL
- ALKALINE PHOSPHATASE [2]: 412 u/L
- ASPARTATE AMINOTRANSFERASE [2]: 89.67 u/L
- BLOOD UREA NITROGEN [2]: 16.33 mg/dL
- CARBON DIOXIDE [2]: 27.67 mmol/L
- CHLORIDE [2]: 103 MEQ/L
- CHOLESTEROL [2]: 70.67 mg/dL
- CREATINE PHOSPHOKINASE [2]: 345 u/L
- CREATININE [2]: 0.18 mg/dL
- GLUCOSE [2]: 160.33 mg/dL
- LACTATE DEHYDROGENASE [2]: 218 u/L
- LIPASE [2]: 8.33 u/L
- PHOSPHORUS [2]: 12.83 mg/dL
- POTASSIUM [2]: 6.76 MEQ/L
- SODIUM [2]: 143.8 MEQ/L
- TOTAL BILIRUBIN [2]: 0.23 mg/dL
- TOTAL PROTEIN [2]: 5.8 G/DL
- URIC ACID [2]: 1.53 mg/dL
- ABSOLUTE BASOPHIL [3]: 0 CELLS/uL
- ABSOLUTE EOSINOPHIL [3]: 338.33 CELLS/uL
- ABSOLUTE LYMPHOCYTE [3]: 17074 CELLS/uL
- ABSOLUTE MONOCYTE [3]: 209.67 CELLS/uL
- ABSOLUTE SEGMENTED NEUTROPHIL [3]: 3344.67 CELLS/uL
- BASOPHIL [3]: 0%
- EOSINOPHIL [3]: 1.67%
- ERYTHROCYTE COUNT [3]: 5.22 x10E6/uL
- HEMATOCRIT [3]: 33.53%
- HEMOGLOBIN [3]: 12.47 G/DL
- LEUKOCYTE COUNT [3]: 20.97 x10E3/uL
- LYMPHOCYTE [3]: 81.33%
- MEAN CORPUSCULAR HEMOGLOBIN [3]: 23.9 pg
- MEAN CORPUSCULAR HEMOGLOBIN CONCENTRATION [3]: 37.17 G/DL
- MEAN CORPUSCULAR VOLUME [3]: 64.37 fL
- MONOCYTE [3]: 1%
- NEUTROPHIL [3]: 16%
- NUCLEATED RED BLOOD CELLS [3]: 0 /100WBC
- PLATELET COUNT [3]: 1321.67 x10E3/uL
- ALANINE AMINOTRANSFERASE [3]: 47 u/L
- ALBUMIN [3]: 4.17 G/DL
- ALKALINE PHOSPHATASE [3]: 353 u/L
- ASPARTATE AMINOTRANSFERASE [3]: 79.67 u/L
- BLOOD UREA NITROGEN [3]: 18 mg/dL
- CARBON DIOXIDE [3]: 26.67 mmol/L
- CHLORIDE [3]: 104.33 MEQ/L
- CHOLESTEROL [3]: 51 mg/dL
- CREATINE PHOSPHOKINASE [3]: 415 u/L
- CREATININE [3]: 0.21 mg/dL
- GLUCOSE [3]: 163 mg/dL
- LACTATE DEHYDROGENASE [3]: 103 u/L
- LIPASE [3]: 8 u/L
- PHOSPHORUS [3]: 12.37 mg/dL
- POTASSIUM [3]: 6.72 MEQ/L
- SODIUM [3]: 144.47 MEQ/L
- TOTAL BILIRUBIN [3]: 0.37 mg/dL
- TOTAL PROTEIN [3]: 6.07 G/DL
- URIC ACID [3]: 1.93 mg/dL
